According to patent publication US20230219986A1, “NOVEL AMINOPYRIMIDINE EGFR INHIBITOR” (QILU PHARMACEUTICAL CO., LTD., priority 2020, published 2023):
Where two headings read alike, the source gives them in different places.

Legend:
[1] = test system: EGFR wild-type cell line A431; assay: Cell proliferation inhibition experiment (CellTiter-Glo), A431; format: cell-based; conditions: A431 cells, Cell Titer-Glo, read-out: A431 EGFR WT IC50
Experimental: A431 cells, purchased from ATCC.
1) A431 cells were inoculated in a 384-well culture plate at a density of 800 cells per well, 30 μL per well, placed in a cell incubator, and cultured for 24 hours (37° C., 5% CO2).
(§1) 3) 30 nL of gradient diluted compound was transferred into the 384-well experimental plate using Echo 550 (Labcyte) at a DMSO final concentration of 0.1%, and the culture plate was incubated in a cell incubator for 72 hours (37° C., 5% CO2).
(§2) 4) 30 μL of Cell Titer-Glo reagent was added to each well and left for 30 minutes at room temperature and protected from light.
(§3) 5) Envision microplate reader (PerkinElmer) detected chemiluminescence signals.
(§4) 6) GraphPad Prism 8 software was used for data analysis to obtain the IC50 of the compounds of the present disclosure and the positive control.

[2] = molecular target: Ba/F3 L858R/T790M/C797S EGFR triple mutant cell line (Homo sapiens, UniProt P00533, T790M/C797S/L858R, cells depend on it); assay: Cell proliferation inhibition experiment (CellTiter-Glo), Ba/F3 L858R/T790M/C797S; format: cell-based; conditions: 72 hours, Cell Titer-Glo, read-out: Ba/F3 (L858R/T790M/C797S) IC50
Sequence of Ba/F3 L858R/T790M/C797S EGFR triple mutant cell line (P00533 whole entry T790M/C797S/L858R): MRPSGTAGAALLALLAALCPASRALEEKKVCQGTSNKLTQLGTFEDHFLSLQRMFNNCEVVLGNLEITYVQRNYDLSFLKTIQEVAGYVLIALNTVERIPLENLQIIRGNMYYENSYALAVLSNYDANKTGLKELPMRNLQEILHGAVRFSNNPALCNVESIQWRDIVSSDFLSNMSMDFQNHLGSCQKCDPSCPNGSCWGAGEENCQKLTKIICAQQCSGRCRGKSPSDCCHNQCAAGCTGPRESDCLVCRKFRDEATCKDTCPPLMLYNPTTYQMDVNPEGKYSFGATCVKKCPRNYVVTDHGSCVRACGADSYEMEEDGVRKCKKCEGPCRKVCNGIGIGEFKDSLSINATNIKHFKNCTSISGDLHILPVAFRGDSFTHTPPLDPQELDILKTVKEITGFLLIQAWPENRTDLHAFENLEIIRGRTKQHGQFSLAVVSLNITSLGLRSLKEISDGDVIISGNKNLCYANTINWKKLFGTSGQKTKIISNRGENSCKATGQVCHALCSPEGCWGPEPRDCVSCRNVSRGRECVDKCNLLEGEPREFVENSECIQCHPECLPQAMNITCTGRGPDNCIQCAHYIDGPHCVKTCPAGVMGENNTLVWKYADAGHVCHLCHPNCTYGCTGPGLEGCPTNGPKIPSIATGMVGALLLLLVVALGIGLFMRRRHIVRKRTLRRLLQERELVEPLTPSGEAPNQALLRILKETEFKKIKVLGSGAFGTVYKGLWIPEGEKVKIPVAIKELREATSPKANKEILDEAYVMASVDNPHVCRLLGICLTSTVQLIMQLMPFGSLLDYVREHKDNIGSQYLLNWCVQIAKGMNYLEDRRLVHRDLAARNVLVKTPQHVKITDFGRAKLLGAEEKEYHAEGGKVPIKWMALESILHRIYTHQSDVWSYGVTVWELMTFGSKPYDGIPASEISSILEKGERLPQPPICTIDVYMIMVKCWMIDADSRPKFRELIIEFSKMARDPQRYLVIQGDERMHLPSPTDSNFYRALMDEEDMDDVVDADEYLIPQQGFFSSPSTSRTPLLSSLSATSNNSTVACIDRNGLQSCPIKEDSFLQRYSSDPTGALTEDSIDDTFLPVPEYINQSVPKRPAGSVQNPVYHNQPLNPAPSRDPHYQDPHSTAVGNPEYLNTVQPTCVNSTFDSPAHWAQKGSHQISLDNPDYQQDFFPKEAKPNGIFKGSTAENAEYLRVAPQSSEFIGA
Experimental: as §1, §2, §3, §4

[3] = molecular target: T1, L858R/T790M/C797S triple mutant EGFR (Homo sapiens, UniProt P00533, C797S/L858R/T790M); assay: Enzymology experiment in vitro (HTRF/FRET kinase activity), L858R/T790M/C797S triple mutant EGFR; format: biochemical; conditions: HTRF KinEASE-TK, read-out: EGFR (L858R/T790M/C797S) IC50
T1 construct: purchased Signalchem
T1 sequence (P00533 25-1210 T790M/C797S/L858R): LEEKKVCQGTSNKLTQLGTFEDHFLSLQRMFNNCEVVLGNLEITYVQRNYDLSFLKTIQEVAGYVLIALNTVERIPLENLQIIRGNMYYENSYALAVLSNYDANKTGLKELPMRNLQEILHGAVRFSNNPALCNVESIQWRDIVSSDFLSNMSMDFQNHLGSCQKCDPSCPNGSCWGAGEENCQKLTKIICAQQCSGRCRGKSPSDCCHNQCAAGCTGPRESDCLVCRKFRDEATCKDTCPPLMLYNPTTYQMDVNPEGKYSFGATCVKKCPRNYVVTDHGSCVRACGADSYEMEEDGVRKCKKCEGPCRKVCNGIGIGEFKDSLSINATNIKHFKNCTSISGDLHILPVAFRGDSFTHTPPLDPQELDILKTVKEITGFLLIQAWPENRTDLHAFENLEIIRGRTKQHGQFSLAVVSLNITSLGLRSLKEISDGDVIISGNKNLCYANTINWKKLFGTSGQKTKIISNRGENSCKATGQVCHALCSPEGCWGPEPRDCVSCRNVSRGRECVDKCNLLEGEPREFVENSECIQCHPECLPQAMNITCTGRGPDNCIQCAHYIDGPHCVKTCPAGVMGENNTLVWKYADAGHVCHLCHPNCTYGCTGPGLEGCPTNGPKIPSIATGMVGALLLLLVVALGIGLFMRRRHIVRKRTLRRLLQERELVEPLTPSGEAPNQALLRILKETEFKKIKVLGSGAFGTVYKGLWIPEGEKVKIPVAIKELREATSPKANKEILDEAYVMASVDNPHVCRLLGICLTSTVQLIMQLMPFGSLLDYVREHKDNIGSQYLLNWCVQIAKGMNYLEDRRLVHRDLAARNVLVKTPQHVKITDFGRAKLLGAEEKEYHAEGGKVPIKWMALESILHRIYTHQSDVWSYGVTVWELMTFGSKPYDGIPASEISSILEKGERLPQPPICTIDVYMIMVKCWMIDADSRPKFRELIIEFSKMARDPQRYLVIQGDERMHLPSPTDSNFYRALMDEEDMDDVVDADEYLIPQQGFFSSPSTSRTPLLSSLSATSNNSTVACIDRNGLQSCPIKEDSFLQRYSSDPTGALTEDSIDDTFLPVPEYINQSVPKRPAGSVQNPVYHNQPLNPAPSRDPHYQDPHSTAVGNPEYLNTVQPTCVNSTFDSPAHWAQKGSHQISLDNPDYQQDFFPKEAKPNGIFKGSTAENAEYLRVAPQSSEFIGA
Experimental: (§5) 1. Experimental Materials
(§6) HTRF KinEASE-TK kit detection reagent, purchased from Cisbio
(§7) 1) 10 nL of gradient diluted compound was transferred into a 384-well experimental plate using Echo 550 (Labcyte).
(§8) 2) 5 μL of 2×EGFR enzyme solution was added to the 384-well experimental plate and incubated at room temperature for 10 minutes.
(§9) 3) 5 μL of 2× substrate solution containing polypeptide and ATP was added to the 384-well experimental plate and incubated at room temperature for 40 minutes.
(§10) 4) 10 μL of detection solution containing EDTA, XL665-labeled streptavidin and Eu^3+-labeled antibody was added thereto and incubated at room temperature for 1 hour.

[4] = molecular target: T2, wild-type EGFR (Homo sapiens, UniProt P00533); assay: Enzymology experiment in vitro (HTRF/FRET kinase activity), wild-type EGFR; format: biochemical; conditions: HTRF KinEASE-TK, read-out: EGFR (WT) IC50
T2 construct: purchased Signalchem
T2 sequence (P00533 25-1210): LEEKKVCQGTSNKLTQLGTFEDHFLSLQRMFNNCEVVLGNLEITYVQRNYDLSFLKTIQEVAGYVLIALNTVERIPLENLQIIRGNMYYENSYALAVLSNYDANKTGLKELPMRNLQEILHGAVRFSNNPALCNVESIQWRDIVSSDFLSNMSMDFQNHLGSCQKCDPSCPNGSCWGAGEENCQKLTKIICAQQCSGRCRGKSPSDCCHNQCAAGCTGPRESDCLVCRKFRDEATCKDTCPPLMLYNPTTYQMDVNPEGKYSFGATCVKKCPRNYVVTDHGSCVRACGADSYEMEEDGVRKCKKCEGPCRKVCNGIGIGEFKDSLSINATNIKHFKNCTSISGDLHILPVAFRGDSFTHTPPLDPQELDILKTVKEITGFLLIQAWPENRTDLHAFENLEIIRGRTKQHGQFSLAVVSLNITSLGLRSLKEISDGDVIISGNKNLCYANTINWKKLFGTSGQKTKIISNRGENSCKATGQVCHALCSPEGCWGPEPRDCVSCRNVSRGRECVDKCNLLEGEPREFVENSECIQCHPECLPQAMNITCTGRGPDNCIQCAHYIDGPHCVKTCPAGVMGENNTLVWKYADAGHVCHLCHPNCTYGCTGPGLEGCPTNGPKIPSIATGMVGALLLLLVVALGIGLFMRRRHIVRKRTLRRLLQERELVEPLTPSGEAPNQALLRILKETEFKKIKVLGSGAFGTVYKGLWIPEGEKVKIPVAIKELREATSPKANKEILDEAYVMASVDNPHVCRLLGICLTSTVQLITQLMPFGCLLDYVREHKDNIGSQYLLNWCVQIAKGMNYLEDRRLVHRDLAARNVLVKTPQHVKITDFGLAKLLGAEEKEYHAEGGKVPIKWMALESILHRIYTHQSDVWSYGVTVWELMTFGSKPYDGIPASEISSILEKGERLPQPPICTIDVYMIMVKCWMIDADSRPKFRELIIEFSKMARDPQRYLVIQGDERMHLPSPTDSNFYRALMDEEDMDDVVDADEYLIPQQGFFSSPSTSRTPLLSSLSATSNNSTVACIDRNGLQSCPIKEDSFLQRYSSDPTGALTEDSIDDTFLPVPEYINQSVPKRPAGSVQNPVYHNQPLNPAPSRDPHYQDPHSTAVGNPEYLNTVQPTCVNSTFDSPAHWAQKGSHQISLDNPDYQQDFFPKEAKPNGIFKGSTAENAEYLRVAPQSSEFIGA
Experimental: as §5, §6, §7, §8, §9, §10

[5] = molecular target: Ba/F3 De119/T790M/C797S EGFR triple mutant cell line (Homo sapiens, UniProt P00533, T790M/C797S, cells depend on it, form not given); assay: Cell proliferation inhibition experiment (CellTiter-Glo), Ba/F3 De119/T790M/C797S; format: cell-based; conditions: Ba/F3 Del19/T790M/C797S EGFR triple mutant cells, 72 hours, Cell Titer-Glo; read-out: Ba/F3 (Del19/T790M/C797S) IC50
Sequence of Ba/F3 De119/T790M/C797S EGFR triple mutant cell line (P00533 with tags, fused parts or gaps DEL746-750/T790M/C797S, form open): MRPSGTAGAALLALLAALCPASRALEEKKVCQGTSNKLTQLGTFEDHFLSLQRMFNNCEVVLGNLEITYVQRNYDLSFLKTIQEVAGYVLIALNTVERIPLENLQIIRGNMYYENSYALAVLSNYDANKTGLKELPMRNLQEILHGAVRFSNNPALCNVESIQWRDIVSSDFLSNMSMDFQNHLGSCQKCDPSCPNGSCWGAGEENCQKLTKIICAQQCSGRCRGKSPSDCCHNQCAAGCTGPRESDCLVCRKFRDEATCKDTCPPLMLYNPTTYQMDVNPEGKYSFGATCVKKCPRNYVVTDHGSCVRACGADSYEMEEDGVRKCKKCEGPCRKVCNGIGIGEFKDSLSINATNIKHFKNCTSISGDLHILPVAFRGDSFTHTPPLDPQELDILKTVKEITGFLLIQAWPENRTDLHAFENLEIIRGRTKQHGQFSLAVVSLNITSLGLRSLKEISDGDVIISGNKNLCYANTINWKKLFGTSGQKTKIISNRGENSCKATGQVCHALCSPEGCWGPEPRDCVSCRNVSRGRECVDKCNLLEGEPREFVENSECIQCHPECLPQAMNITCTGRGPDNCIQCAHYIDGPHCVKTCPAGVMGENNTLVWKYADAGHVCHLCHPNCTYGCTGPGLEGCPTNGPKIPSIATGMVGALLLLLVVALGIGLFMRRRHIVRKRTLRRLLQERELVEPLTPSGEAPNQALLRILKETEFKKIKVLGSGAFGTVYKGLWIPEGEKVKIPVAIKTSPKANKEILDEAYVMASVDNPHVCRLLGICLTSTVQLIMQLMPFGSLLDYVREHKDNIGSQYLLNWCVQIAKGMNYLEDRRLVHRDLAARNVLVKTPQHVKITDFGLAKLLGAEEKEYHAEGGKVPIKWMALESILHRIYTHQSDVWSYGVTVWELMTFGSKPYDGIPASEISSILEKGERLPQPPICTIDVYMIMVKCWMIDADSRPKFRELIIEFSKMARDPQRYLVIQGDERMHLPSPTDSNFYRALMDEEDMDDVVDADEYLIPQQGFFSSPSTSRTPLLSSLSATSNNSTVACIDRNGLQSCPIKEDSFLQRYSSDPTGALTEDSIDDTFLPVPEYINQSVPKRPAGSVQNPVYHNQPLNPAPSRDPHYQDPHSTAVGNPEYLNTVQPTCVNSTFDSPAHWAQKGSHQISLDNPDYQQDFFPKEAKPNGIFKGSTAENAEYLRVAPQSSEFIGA
Experimental: as §1, §2, §3, §4

| SMILES | IC50 ([1]; Homo sapiens, A-431, 72 h) [nM] | GI50 [2] [nM] | IC50 [3] [nM] | IC50 [4] [nM] | GI50 [5] [nM] | IC50 ([1]; 72 hours) [nM] |
| --- | --- | --- | --- | --- | --- | --- |
| COc1cc(N2CCOCC2)c(-c2cnn(S(=O)(=O)C3CC3)c2)cc1Nc1ncc(Br)c(Nc2ccc3nccnc3c2P(C)(C)=O)n1 [Compound 8, (6-((5-bromo-2-((5-(1-(cyclopropylsulfonyl)-1H-pyrazol-4-yl)-2-methoxy-4-morpholinylphenyl)amino)pyrimidin-4-yl)amino)quinoxalin-5-yl)dimethylphosphine oxide] | 769 | 137 | 3.19 | 358 | 69 | – |
| CN(C)CCN1CCOc2c(Nc3ncc(Br)c(Nc4ccc5nccnc5c4P(C)(C)=O)n3)cc(-c3cnn(C)c3)cc21 [compound 122] | 37.2 | 9.96 | 0.62 | 3.42 | 2.07 | – |
| COc1cc(N2CCC(N3CC(F)C3)C2)c(-c2cnn(C)c2)cc1Nc1ncc(Br)c(Nc2ccc3nccnc3c2P(C)(C)=O)n1 (racemic) [compound 223, (6-((5-Bromo-2-((4-(3-(3-fluoroazetidin-1-yl)pyrrolidin-1-yl)-2-methoxy-5-(1-methyl-1H-pyrazol-4-yl)phenyl)amino)pyrimidin-4-yl)amino)quinoxalin-5-yl)dimethylphosphine oxide] | 76.9 | 3.56 | 0.17 | 7 | 2.88 | – |
| COc1cc(N2CCOCC2)c(-c2cnn(C)c2)cc1Nc1ncc(Br)c(Nc2ccccc2NS(=O)(=O)C2CC2)n1 [compound 125] | 490 | 14.4 | 0.53 | 23.8 | 5.87 | – |
| COc1cc(N2CCOCC2)c(-c2cnn(C)c2)cc1Nc1ncc(Br)c(Nc2ccc3ncccc3c2P(C)(C)=O)n1 [compound 160] | 208 | 9.04 | 0.26 | 2.32 | 1.56 | – |
| COc1cc(N2CCN(CC3(C#N)CC3)CC2)c(-c2cnn(C)c2)cc1Nc1ncc(Br)c(Nc2ccc3nccnc3c2P(C)(C)=O)n1 [compound 237, 1-((4-(4-((5-Bromo-4-((5-(dimethylphosphoryl)quinoxalin-6-yl)amino)pyrimidin-2-yl)amino)-5-methoxy-2-(1-methyl-1H-pyrazol-4-yl)phenyl)piperazin-1-yl)methyl)cyclopropane-1-carbonitrile] | 129 | 3.05 | 0.52 | 5.2 | 1.26 | – |
| COc1cc(N2CCN(C3(C)CC3)CC2)c(-c2cnn(C)c2)cc1Nc1ncc(Br)c(Nc2ccc3nccnc3c2P(C)(C)=O)n1 [compound 229] | 164 | 12.1 | 0.42 | 8.53 | 3.76 | – |
| COc1cc(N2CCOCC2)c(-c2cn(C)nc2C)cc1Nc1ncc(Br)c(Nc2ccc3nccnc3c2P(C)(C)=O)n1 [compound 43] | 880 | 29.7 | 0.47 | 95.3 | 16.4 | – |
| COc1cc(N2CCC(N3CCC(F)CC3)CC2)c(-c2cnn(C)c2)cc1Nc1ncc(Br)c(Nc2ccc3nccnc3c2P(C)(C)=O)n1 [compound 180] | 64.8 | 6.53 | 0.36 | 1.4 | 4.13 | – |
| COc1cc(N2CCN(CCF)CC2)c(-c2cnn(C)c2)cc1Nc1ncc(Br)c(Nc2ccc3nccnc3c2P(C)(C)=O)n1 [compound 103] | 152 | 5.02 | 0.13 | 1.57 | 0.51 | – |
| COc1cc(N2CCN(S(=O)(=O)C3CC3)CC2)c(-c2cnn(C)c2)cc1Nc1ncc(Br)c(Nc2ccc3nccnc3c2P(C)(C)=O)n1 [compound 178] | 168 | 13 | 1.29 | 7.68 | 2.86 | – |
| COc1cc(N2CCC(O)CC2)c(-c2cnn(C)c2)cc1Nc1ncc(Br)c(Nc2ccc3nccnc3c2P(C)(C)=O)n1 [compound 121, (6-((5-bromo-2-((4-(4-hydroxypiperidin-1-yl)-2-methoxy-5-(1-methyl-1H-pyrazol-4-yl)phenyl)amino]pyrimidin-4-yl)amino)quinoxalin-5-yl)dimethylphosphine oxide] | 150 | 6.16 | 0.25 | 0.67 | 1.61 | – |
| COc1cc(N2CC(C)OC(C)C2)c(-c2cnn(C)c2)cc1Nc1ncc(Br)c(Nc2ccc3nccnc3c2P(C)(C)=O)n1 (racemic) [compound 135, (6-((5-bromo-2-((4-(trans-2,6-dimethylmorpholinyl)-2-methoxy-5-(1-methyl-1H-pyrazol-4-yl)phenyl)amino))pyrimidin-4-yl)amino)quinoxalin-5-yl)dimethylphosphine oxide] | 402 | 13.3 | 0.47 | 15.6 | 3.68 | – |
| COc1cc(N2CCOCC2)c(-c2cnn(C)c2)cc1Nc1ncc(Br)c(Nc2ccc3nccnc3c2N(C)S(C)(=O)=O)n1 [compound 171, N-(6-((5-bromo-2-((2-methoxy-5-(1-methyl-1H-pyrazol-4-yl)-4-morpholinophenyl)amino)pyrimidin-4-yl)amino)quinoxalin-5-yl)-N-methylmethanesulfonamide] | 623 | 7.23 | 0.29 | 4.59 | 2.13 | – |
| COc1cc(N2CCC3CCN(CCF)C3C2)c(-c2cnn(C)c2)cc1Nc1ncc(Br)c(Nc2ccc3nccnc3c2P(C)(C)=O)n1 (centres unmarked) [compound 205, (6-((5-Bromo-2-((4-(1-(2-fluoroethyl)octahydro-6H-pyrrolo[2,3-c]pyridin-6-yl)-2-methoxy-5-(1-methyl-1H-pyrazol-4-yl)phenyl)amino)pyrimidin-4-yl)amino)quinoxalin-5-yl)dimethylphosphine oxide] | 116 | 8.9 | 0.35 | 3.08 | 3.2 | – |
| COc1cc(N2CCC3(CC2)CN(C(C)C)CC(C)(C)O3)c(-c2cnn(C)c2)cc1Nc1ncc(Br)c(Nc2ccc3nccnc3c2P(C)(C)=O)n1 [compound 224, (6-((5-Bromo-2-((4-(4-isopropyl-2,2-dimethyl-1-oxa-4,9-diazaspiro [5.5]undecane-9-yl)-2-methoxy-5-(1-methyl-1H-pyrazol-4-yl)phenyl)amino)pyrimidin-4-yl)amino)quinoxalin-5-yl)dimethylphosphine oxide] | 336 | 13.2 | 4.31 | 10.7 | 8.88 | – |
| COc1cc(N2C[C@@H]3C[C@H]2CO3)c(-c2cnn(C)c2)cc1Nc1ncc(Br)c(Nc2ccc3nccnc3c2P(C)(C)=O)n1 [compound 107] | 380 | 30.9 | 1.3 | 26.4 | 11.2 | – |
| COc1cc(N2CCC(N3CCOCC3)CC2)c(-c2cnn(C)c2)cc1Nc1ncc(Br)c(Nc2ccc3nccnc3c2P(C)(C)=O)n1 [compound 210] | – | 7.23 | 0.11 | – | 4.42 | 275 |
| COc1cnc(-c2cnn(C)c2)cc1Nc1ncc(C)c(Nc2ccc3nccnc3c2P(C)(C)=O)n1 [compound 53] | 294 | – | 3.6 | 87 | 62.2 | – |
| CN1CCOc2c(Nc3ncc(Br)c(Nc4ccc5nccnc5c4P(C)(C)=O)n3)cc(-c3cnn(C)c3)cc21 [compound 47] | 126 | – | 0.37 | 20.5 | 4.31 | – |
| COc1cc(S(C)(=O)=O)c(-c2cnn(C)c2)cc1Nc1ncc(Br)c(Nc2ccc3nccnc3c2P(C)(C)=O)n1 [compound 44] | ≥ 5000 | – | 22 | 1560 | 93.5 | – |
| COc1cc(N2CCC(N3CCOCC3)CC2)c(-c2cnn(C)c2)cc1Nc1ncc(Br)c(Nc2ccc3nccnc3c2P(C)(C)=O)n1 [compound 129] | – | 2.71 | 0.27 | – | 0.72 | 86.2 |
| Cn1cc(-c2cc(Nc3ncc(Br)c(Nc4ccc5nccnc5c4P(C)(C)=O)n3)c3c(c2N2CCOCC2)CCCO3)cn1 [compound 51] | 292 | 36.8 | 0.11 | 111 | – | – |
| CCn1cc(-c2cc(Nc3ncc(Br)c(Nc4ccc5nccnc5c4P(C)(C)=O)n3)c(OC)cc2N2CCOCC2)cn1 [compound 49] | 234 | – | 0.12 | 21.5 | 4.88 | – |
